# Data: the kinase profiling compilation of Christmann-Franck et al. (2016)
# How the values were obtained:
# Experiment in all cases: KINOMEscan competition binding
# Details in all cases: compound 10.0 µM
# [1] = target: STK3 (human) (UniProt Q13188)
# [2] = target: JAK1 JH2 pseudokinase (human) (UniProt P23458)
# [3] = target: MAPK6 (human) (UniProt Q16659)
# [4] = target: PDGFRA (human) (UniProt P16234)
# [5] = target: ZAP70 (human) (UniProt P43403)
# [6] = target: PRKG2 (human) (UniProt Q13237)
# [7] = target: JAK2 JH1 catalytic (human) (UniProt O60674)
# [8] = target: RIPK2 (human) (UniProt O43353)
# [9] = target: WEE1 (human) (UniProt P30291)
# [10] = target: MAP2K4 (human) (UniProt P45985)
# [11] = target: PIK3CB (human) (UniProt P42338)
# [12] = target: TNIK (human) (UniProt Q9UKE5)
# [13] = target: AKT1 (human) (UniProt P31749)
# [14] = target: PIK3C2B (human) (UniProt O00750)
# [15] = target: MAPK15 (human) (UniProt Q8TD08)
# [16] = target: PAK7 (human) (UniProt Q9P286)
# [17] = target: TLK1 (human) (UniProt Q9UKI8)
# [18] = target: BRSK2 (human) (UniProt Q8IWQ3)
# [19] = target: STK36 (human) (UniProt Q9NRP7)
# [20] = target: NEK7 (human) (UniProt Q8TDX7)
# [21] = target: JAK3 JH1 catalytic (human) (UniProt P52333)
# [22] = target: IGF1R (human) (UniProt P08069)
# [23] = target: CSK (human) (UniProt P41240)
# [24] = target: ACVR2A (human) (UniProt P27037)
# [25] = target: PRKCQ (human) (UniProt Q04759)
# [26] = target: MST4 (human) (UniProt Q9P289)
# [27] = target: MELK (human) (UniProt Q14680)
# [28] = target: NUAK1 (human) (UniProt O60285)
# [29] = target: CDC42BPG (human) (UniProt Q6DT37)
# [30] = target: RAF1 (human) (UniProt P04049)
# [31] = target: NEK6 (human) (UniProt Q9HC98)
# [32] = target: PHKG1 (human) (UniProt Q16816)
# [33] = target: NTRK1 (human) (UniProt P04629)
# [34] = target: TEK (human) (UniProt Q02763)
# [35] = target: IKBKE (human) (UniProt Q14164)
# [36] = target: ACVRL1 (human) (UniProt P37023)
# [37] = target: FGR (human) (UniProt P09769)
# [38] = target: ERBB4 (human) (UniProt Q15303)
# [39] = target: INSR (human) (UniProt P06213)
# [40] = target: PRKCD (human) (UniProt Q05655)
# PIK3CB (human), sequence (P42338 whole entry, looked up): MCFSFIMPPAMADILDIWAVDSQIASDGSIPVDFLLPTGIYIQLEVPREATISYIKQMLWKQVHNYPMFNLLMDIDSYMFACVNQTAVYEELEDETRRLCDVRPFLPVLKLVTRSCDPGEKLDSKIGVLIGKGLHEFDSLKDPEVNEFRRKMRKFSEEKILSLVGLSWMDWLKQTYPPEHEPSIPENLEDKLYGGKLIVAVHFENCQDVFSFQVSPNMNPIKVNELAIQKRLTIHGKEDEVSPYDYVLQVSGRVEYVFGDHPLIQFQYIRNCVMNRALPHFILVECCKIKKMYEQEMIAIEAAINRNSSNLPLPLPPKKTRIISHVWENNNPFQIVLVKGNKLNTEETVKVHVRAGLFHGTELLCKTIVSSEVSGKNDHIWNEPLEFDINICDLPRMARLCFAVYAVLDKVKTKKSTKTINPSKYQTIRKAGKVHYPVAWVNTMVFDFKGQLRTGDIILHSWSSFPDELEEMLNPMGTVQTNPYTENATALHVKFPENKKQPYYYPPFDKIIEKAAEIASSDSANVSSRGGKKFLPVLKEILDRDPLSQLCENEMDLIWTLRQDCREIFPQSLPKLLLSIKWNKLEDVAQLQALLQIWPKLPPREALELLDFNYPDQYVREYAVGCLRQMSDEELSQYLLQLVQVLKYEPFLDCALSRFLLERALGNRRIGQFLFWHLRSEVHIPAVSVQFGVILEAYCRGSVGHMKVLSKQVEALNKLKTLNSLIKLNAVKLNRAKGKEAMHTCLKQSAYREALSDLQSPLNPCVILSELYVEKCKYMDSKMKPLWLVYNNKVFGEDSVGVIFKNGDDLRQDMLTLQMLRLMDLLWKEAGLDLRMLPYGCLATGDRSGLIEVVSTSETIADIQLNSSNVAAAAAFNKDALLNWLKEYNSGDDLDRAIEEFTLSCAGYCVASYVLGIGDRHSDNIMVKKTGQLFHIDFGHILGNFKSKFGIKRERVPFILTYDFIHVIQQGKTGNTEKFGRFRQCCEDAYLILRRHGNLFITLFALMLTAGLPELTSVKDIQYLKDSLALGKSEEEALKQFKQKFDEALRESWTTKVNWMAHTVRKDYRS
# MST4 (human), sequence (Q9P289 whole entry, looked up): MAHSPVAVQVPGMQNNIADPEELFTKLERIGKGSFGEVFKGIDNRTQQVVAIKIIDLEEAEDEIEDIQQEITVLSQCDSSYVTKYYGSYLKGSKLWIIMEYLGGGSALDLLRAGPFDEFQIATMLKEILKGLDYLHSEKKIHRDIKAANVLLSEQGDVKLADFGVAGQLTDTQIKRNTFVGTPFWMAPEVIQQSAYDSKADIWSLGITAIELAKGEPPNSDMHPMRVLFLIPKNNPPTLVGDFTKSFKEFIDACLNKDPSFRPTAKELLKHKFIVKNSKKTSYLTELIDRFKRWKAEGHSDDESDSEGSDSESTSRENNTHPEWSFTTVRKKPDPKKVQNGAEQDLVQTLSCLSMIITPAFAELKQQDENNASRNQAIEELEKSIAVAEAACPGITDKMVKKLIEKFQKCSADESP
# JAK3 JH1 catalytic (human), sequence (P52333 whole entry, looked up): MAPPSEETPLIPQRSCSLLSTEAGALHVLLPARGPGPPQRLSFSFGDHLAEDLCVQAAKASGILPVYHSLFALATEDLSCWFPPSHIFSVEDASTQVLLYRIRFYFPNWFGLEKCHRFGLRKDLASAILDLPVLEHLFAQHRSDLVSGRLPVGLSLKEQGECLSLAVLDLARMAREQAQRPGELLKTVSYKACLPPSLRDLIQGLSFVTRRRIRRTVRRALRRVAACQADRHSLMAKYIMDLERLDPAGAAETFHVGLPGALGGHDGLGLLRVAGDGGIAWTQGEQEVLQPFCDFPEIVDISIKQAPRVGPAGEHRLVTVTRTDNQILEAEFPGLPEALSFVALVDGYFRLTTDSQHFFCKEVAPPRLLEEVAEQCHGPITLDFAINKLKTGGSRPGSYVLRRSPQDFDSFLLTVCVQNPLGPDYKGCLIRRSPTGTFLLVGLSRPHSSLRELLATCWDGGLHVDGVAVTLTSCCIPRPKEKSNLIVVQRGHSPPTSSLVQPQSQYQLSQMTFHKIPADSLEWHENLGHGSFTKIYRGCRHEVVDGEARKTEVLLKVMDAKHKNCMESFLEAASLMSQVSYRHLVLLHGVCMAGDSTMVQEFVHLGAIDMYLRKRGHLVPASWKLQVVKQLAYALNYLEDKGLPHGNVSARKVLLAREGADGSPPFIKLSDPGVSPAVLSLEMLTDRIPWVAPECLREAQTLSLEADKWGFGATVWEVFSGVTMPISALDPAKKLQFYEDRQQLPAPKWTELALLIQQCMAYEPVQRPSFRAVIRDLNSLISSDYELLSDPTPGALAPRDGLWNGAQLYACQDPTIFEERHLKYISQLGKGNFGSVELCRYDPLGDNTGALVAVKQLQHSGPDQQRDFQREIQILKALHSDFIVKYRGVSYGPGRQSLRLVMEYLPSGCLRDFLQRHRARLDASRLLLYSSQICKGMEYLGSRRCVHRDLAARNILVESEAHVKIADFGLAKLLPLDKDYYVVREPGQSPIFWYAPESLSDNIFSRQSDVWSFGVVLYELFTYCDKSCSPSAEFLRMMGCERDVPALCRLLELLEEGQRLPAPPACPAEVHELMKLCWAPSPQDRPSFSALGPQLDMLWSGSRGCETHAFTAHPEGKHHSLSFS
# ACVR2A (human), sequence (P27037 whole entry, looked up): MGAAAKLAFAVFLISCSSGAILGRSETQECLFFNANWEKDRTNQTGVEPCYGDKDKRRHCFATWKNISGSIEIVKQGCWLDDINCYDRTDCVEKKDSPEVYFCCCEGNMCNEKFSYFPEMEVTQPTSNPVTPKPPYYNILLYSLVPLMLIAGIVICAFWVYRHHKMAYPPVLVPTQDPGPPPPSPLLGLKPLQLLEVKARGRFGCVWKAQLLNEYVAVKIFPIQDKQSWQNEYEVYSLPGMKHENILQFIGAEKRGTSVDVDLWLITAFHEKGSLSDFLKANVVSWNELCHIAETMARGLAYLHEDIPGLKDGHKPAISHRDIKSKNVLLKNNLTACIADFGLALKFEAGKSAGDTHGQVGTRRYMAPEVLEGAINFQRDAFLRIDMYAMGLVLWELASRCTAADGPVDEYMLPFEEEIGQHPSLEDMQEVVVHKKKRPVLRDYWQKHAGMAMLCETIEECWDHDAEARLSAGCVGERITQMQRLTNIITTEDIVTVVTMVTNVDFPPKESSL
# PRKCQ (human), sequence (Q04759 whole entry, looked up): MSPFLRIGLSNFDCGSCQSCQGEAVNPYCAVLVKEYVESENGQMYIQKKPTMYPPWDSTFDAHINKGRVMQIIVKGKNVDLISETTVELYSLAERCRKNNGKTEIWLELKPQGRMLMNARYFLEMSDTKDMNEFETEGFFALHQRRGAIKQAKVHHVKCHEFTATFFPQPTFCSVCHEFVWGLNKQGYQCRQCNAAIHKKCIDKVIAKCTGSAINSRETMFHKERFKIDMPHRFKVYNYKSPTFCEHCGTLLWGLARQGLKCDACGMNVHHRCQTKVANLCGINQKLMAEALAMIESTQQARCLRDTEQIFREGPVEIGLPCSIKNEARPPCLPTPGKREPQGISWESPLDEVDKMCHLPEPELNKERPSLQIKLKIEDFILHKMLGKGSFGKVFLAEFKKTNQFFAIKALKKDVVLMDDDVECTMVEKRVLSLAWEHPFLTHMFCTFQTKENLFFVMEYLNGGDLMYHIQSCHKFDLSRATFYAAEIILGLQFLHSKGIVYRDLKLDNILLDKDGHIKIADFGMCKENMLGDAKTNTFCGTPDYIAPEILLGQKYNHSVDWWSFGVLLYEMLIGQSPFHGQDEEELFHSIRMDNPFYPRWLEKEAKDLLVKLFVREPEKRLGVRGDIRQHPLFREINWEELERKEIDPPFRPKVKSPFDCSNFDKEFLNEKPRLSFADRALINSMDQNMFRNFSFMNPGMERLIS
# MAPK15 (human), sequence (Q8TD08 whole entry, looked up): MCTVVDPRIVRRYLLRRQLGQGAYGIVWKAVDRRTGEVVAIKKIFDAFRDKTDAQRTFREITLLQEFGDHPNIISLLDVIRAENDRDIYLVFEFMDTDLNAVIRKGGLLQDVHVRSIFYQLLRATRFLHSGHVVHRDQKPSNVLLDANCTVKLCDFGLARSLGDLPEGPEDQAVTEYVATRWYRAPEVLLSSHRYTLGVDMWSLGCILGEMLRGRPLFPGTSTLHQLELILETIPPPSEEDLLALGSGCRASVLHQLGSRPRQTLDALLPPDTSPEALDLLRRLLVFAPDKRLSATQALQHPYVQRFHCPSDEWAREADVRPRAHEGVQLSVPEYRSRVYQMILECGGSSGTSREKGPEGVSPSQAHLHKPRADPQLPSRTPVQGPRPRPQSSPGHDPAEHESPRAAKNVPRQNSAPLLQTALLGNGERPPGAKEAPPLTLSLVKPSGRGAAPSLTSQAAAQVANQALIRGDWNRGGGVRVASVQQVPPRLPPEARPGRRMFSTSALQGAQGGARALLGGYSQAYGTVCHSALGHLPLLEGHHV
# FGR (human), sequence (P09769 whole entry, looked up): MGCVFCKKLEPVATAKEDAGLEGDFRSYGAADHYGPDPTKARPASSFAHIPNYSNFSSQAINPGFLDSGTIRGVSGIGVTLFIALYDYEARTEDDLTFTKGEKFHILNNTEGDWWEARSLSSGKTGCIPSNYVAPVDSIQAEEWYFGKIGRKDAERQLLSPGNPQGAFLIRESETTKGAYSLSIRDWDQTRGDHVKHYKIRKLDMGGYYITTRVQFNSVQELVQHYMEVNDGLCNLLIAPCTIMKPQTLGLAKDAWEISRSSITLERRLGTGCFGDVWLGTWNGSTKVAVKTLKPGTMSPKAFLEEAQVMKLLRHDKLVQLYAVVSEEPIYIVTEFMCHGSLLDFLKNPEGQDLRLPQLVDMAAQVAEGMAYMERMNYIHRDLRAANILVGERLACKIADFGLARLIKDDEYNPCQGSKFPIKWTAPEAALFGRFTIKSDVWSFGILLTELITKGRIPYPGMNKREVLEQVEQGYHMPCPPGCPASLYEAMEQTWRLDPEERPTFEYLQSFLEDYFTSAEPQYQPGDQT
smiles,measurement,setting,value
CN(C)C/C=C/C(=O)Nc1cccc(Nc2ncc3c(n2)N(C)c2ccccc2C(=O)N3C)c1,"kinase still bound, per cent of control",[1],0%
same,"kinase still bound, per cent of control",[2],0.25%
same,"kinase still bound, per cent of control",[3],46%
same,"kinase still bound, per cent of control",[4],100%
same,"kinase still bound, per cent of control",[5],60%
same,"kinase still bound, per cent of control",[6],81%
same,"kinase still bound, per cent of control",[7],0.75%
same,"kinase still bound, per cent of control",[8],18%
same,"kinase still bound, per cent of control",[9],100%
same,"kinase still bound, per cent of control",[10],100%
same,"kinase still bound, per cent of control",[11],32%
same,"kinase still bound, per cent of control",[12],29%
same,"kinase still bound, per cent of control",[13],100%
same,"kinase still bound, per cent of control",[14],56%
same,"kinase still bound, per cent of control",[15],100%
same,"kinase still bound, per cent of control",[16],36%
same,"kinase still bound, per cent of control",[17],100%
same,"kinase still bound, per cent of control",[18],4.2%
same,"kinase still bound, per cent of control",[19],100%
same,"kinase still bound, per cent of control",[20],100%
same,"kinase still bound, per cent of control",[21],1.2%
same,"kinase still bound, per cent of control",[22],100%
same,"kinase still bound, per cent of control",[23],82%
same,"kinase still bound, per cent of control",[24],57%
same,"kinase still bound, per cent of control",[25],83%
same,"kinase still bound, per cent of control",[26],31%
same,"kinase still bound, per cent of control",[27],43%
same,"kinase still bound, per cent of control",[28],0.85%
same,"kinase still bound, per cent of control",[29],100%
same,"kinase still bound, per cent of control",[30],96%
same,"kinase still bound, per cent of control",[31],73%
same,"kinase still bound, per cent of control",[32],69%
same,"kinase still bound, per cent of control",[33],18%
same,"kinase still bound, per cent of control",[34],35%
same,"kinase still bound, per cent of control",[35],100%
same,"kinase still bound, per cent of control",[36],100%
same,"kinase still bound, per cent of control",[37],4.2%
same,"kinase still bound, per cent of control",[38],100%
same,"kinase still bound, per cent of control",[39],100%
same,"kinase still bound, per cent of control",[40],100%
